Laboratory results as given in patent US20130287823A1, “PATCH” (priority 2010, published 2013).
Where a name gives a salt, the structure may show the parent alone. Read-outs that look alike come from different tables or passages of the source.

Assays:
[1] = Storage stability of midodrine in compounds (60° C., 20 days; discoloration and remaining midodrine by HPLC); format: physicochemical; conditions: 3 parts midodrine + 100 parts compound, sealed; for STORAGE STABILITY OF MIDODRINE: RATIO OF REMAINING MIDODRINE (% BY WEIGHT): HPLC
Protocol: Then the color of the mixture after storage was visually observed. When the color was found unchanged compared with that before the storage, the mixture was evaluated as “excellent.” When discoloration was found, the mixture was evaluated as “bad.”
The weight W5 (g) of non-decomposed midodrine remaining in the mixture after storage was quantified by HPLC, and the ratio (% by weight) of remaining midodrine to the amount W6 (g) of midodrine added was computed using the following formula (1).
Ratio(% by weight)of remaining midodrine=100×(W5/W6) (1)

[2] = Dissolvability of midodrine in monomers (visual observation); format: physicochemical; conditions: 3 parts by weight midodrine in 100 parts by weight of the monomer; observed immediately and after 7 days at 25° C.
From the text: High: No deposition of midodrine was found in any of the midodrine solution immediately after preparation and the midodrine solution after storage for 7 days.
Middle: Deposition of midodrine was found in the solution immediately after preparation, but no deposition of midodrine was found in the midodrine solution after storage for 7 days.
Low: Deposition of midodrine was found in the midodrine solution immediately after preparation and also in the midodrine solution after storage for 7 days.

[3] = Solubility of midodrine at 25° C. in monomers / compounds (saturated solution, HPLC)
Protocol: One hundred parts by weight of a monomer shown in TABLE 1 and 3 parts by weight of midodrine were sufficiently mixed to prepare a midodrine solution, and the dissolved state of midodrine in the midodrine solution was visually observed. The midodrine solution was stored at a temperature of 25° C. for 7 days, and then the dissolved state of midodrine was again visually observed. The dissolvability of midodrine was evaluated according to the following criteria.
A midodrine solution composed of 50 parts by weight of midodrine and 950 parts by weight of a compound shown in TABLE 2 and used as a solvent was prepared. Then the midodrine solution was maintained at 50° C. for 15 minutes and subjected to ultrasonic shaking in a water bath at 25° C. for 10 minutes. The resultant midodrine solution was transferred to a centrifuge tube and left to stand at 25° C. for 2 hours. Then the midodrine solution was centrifuged at a rotation speed of 3,000 rpm using a centrifuge, and the presence or absence of crystals of midodrine on the bottom of the centrifuge tube was observed. When no crystals of midodrine were deposited, the same procedure was repeated with the midodrine-to-compound weight ratio increased up to 200:800 to thereby prepare a saturated midodrine solution.
A certain amount of the supernatant of the saturated midodrine solution after centrifugation was collected, and the collected supernatant was subjected to HPLC measurement to quantify the weight W7 (g) of midodrine dissolved in the saturated midodrine solution.
(W8: weight (g) of compound used as solvent in saturated midodrine solution)

Row | SMILES | STORAGE STABILITY OF MIDODRINE: DISCOLORATION TEST ([1]; colour observed visually) | SOLUBILITY OF MIDODRINE [3] | further results
1 | CC(C)CCCC(C)CCCC(C)CCCCC(C)CCCC(C)CCCC(C)C (centres unmarked) | EXCELLENT | – | –
2 | C=CN1CCCC1=O [1-VINYL-2-PYRROLIDONE] | – | >3.0 g | DISSOLVABILITY OF MIDODRINE [2]: HIGH
3 | C=C(C)C(=O)OCC(CC)CCCC (centres unmarked) [2-ETHYLHEXYL METHACRYLATE] | – | – | DISSOLVABILITY OF MIDODRINE [2]: LOW
4 | C=CC(=O)O [ACRYLIC ACID] | – | – | DISSOLVABILITY OF MIDODRINE [2]: HIGH
5 | C=C(C)C(=O)OCCCC [BUTYL METHACRYLATE] | – | – | DISSOLVABILITY OF MIDODRINE [2]: LOW; SOLUBILITY OF MIDODRINE ([3]; in the monomer as solvent, 25° C., grams of midodrine per 100 g of solvent): 0.10 g
6 | OCCCCO [BUTYLENE GLYCOL] | – | 7.72 g | STORAGE STABILITY OF MIDODRINE: DIS[…] ([1]; colour observed visually): EXCELLENT
7 | C=C(C)C(=O)OCCCCCCCCCCCC [DODECYL METHACRYLATE] | – | 0.02 g | DISSOLVABILITY OF MIDODRINE [2]: LOW
8 | C=CC(=O)OCC [ETHYL ACRYLATE] | – | 0.25 g | DISSOLVABILITY OF MIDODRINE [2]: LOW
9 | CCCCCCCCCCCC(=O)OCCCCCC [HEXYL LAURATE] | EXCELLENT | 0.02 g | –
10 | CCCCCCCCC(CO)CCCCCC (centres unmarked) [HEXYLDECANOL] | EXCELLENT | – | Value in parentheses after the liquid solubilizing aid (solubility of midodrine in the compound) [3]: HEXYLDECANOL (0.26); STORAGE STABILITY OF MIDODRINE: RATIO OF REMAINING MIDODRINE (% BY WEIGHT) [1]: 90.4 % BY WEIGHT
11 | CCCCCCCCCCCCCC(=O)OC(C)C [ISOPROPYL MYRISTATE] | EXCELLENT | – | Value in parentheses after the liquid solubilizing aid (solubility of midodrine in the compound) [3]: ISOPROPYL MYRISTATE (0.02)
12 | CCCCCCCCCCCCCCCC(=O)OC(C)C [ISOPROPYL PALMITATE] | EXCELLENT | – | Value in parentheses after the liquid solubilizing aid (solubility of midodrine in the compound) [3]: ISOPROPYL PALMITATE (0.02)
13 | CC(C)CCCCCCCCCCCCCCC(=O)O [ISOSTEARIC ACID] | BAD | – | –
14 | CC(C)CCCCCCCCCCCCCCCO [ISOSTEARYL ALCOHOL] | EXCELLENT | – | –
15 | CCCCCCCCCCCCO [LAURYL ALCOHOL] | BAD | – | –
16 | NCCO [MONOETHANOLAMINE] | BAD | – | –
17 | CCCCCCC(O)CO (centres unmarked) [OCTANEDIOL] | BAD | 1.78 g | STORAGE STABILITY OF MIDODRINE: RATIO OF REMAINING MIDODRINE (% BY WEIGHT) [1]: 48.0 % BY WEIGHT
18 | CCCCCCCCCCC(CO)CCCCCCCC (centres unmarked) [OCTYLDODECANOL] | EXCELLENT | – | STORAGE STABILITY OF MIDODRINE: RATIO OF REMAINING MIDODRINE (% BY WEIGHT) [1]: 100.0 % BY WEIGHT
19 | CCCCCCCC/C=C\CCCCCCCCO [OLEYL ALCOHOL] | BAD | 0.40 g | –
20 | CC(O)CO (centres unmarked) [PROPYLENE GLYCOL] | EXCELLENT | 15.67 g | –
21 | CC(=O)OCC(COC(C)=O)OC(C)=O [TRIACETIN] | EXCELLENT | 0.70 g | –
22 | CCOC(=O)CC(O)(CC(=O)OCC)C(=O)OCC [TRIETHYL CITRATE] | EXCELLENT | – | –
